Measurements reported in patent publication US8637461B2, “Method of diagnosing and treating oxidative stress-impaired wound healing” (Kuwait University, priority 2011, dated 2014).

How the values were obtained:
PI3K-p85α / IRS-1 = test: Co-precipitation of PI3K p85α with IRS-1 in dermal fibroblasts; type: cell-based, rat; settings: diabetic, TNF-α- or dexamethasone-exposed fibroblasts; EUK-134
Description: (§1) Primary dermal fibroblasts were obtained from dorsal skin of female Goto Kakizaki (GK, age 12-15 months) rats, a model for non-obese type 2 diabetes, and their Wistar control counterparts. After sterilization in povidine solution, rat skin was washed in sterile water and rinsed in 70% ethanol in PBS. Epidermis and dermis were separated following overnight incubation in 0.25% trypsine/EDTA at 4 C. Dermis was cut into small pieces and incubated in Dulbecco's modified Eagle medium (DMEM; Invitrogen) containing collagenase (250 U/ml; Sigma) for thirty min at 37 C in 5% CO2 with constant agitation. The sections were triturated vigorously to release fibroblasts, which were collected by centrifugation. […]
(§2) A hypercortisolemic state was mimicked by exposing control fibroblasts to dexamethasone (Dexa, Sigma) administered at 20 ng/ml every other day for a duration of 8 days. […] The concentration of IGF-1 (50 ng/ml, Peprotech) was determined by prior dose response experiment.
(§3) Levels/activities of key intracellular molecules in the IGF-1 signaling cascade including IRS-1, IRS-1 Tyr-p-612, PI3K-p85α, IRS-1 Ser-p (307), PI3K, Akt, p-Akt, INK and p-JNK were assessed using western blotting/immunoprecipitation and commercially available ELISA-based assays. […]

PI3K = PI3K ELISA kinase assay on fibroblast lysates; type: cell-based, rat; settings: diabetic, TNF-α- or dexamethasone-exposed cells; co-exposure to EUK-134
Description: (§4) Primary dermal fibroblasts were obtained from dorsal skin of female Goto Kakizaki (GK, age 12-15 months) rats, a model for non-obese type 2 diabetes, and their Wistar control counterparts. After sterilization in povidine solution, rat skin was washed in sterile water and rinsed in 70% ethanol in PBS. Epidermis and dermis were separated following overnight incubation in 0.25% trypsine/EDTA at 4 C. Dermis was cut into small pieces and incubated in Dulbecco's modified Eagle medium (DMEM; Invitrogen) containing collagenase (250 U/ml; Sigma) for thirty min at 37 C in 5% CO2 with constant agitation. The sections were triturated vigorously to release fibroblasts, which were collected by centrifugation. The cell pellet was washed two times with PBS, re-suspended in complete medium (DMEM supplemented with 10% fetal calf serum, penicillin (100 U/ml), streptomycin (100 μg/ml)), 2 mM L-glutamine and 10 mM HEPES) and then cultured under a standard condition.
as §2
PI3K activity was measured using PI3K ELISA (Echelon Biosciences Inc). […]

Akt = Akt phosphorylation, western blotting in dermal fibroblasts; type: cell-based, rat; settings: diabetic, TNF-α- or dexamethasone-exposed cells; EUK-134; western blot
Description: as §1, §2, §3

COL1A1 mRNA = test: Real time PCR of COL1A1 mRNA in fibroblasts; type: cell-based, rat; settings: diabetic, TNF-α- or dexamethasone-exposed cells; EUK-134
Description: as §4
A hypercortisolemic state was mimicked by exposing control fibroblasts to dexamethasone (Dexa, Sigma) administered at 20 ng/ml every other day for a duration of 8 days. Similarly, the state of low-grade inflammation in fibroblasts was recapitulated experimentally by exposing these cells to TNF-α (4 ng/ml every day for 4 days). […] The concentration of IGF-1 (50 ng/ml, Peprotech) was determined by prior dose response experiment. […]

dermal fibroblasts = test: Collagen gel contraction assay with fibroblasts; type: cell-based, rat; settings: diabetic, TNF-α- or dexamethasone-exposed cells; EUK-134
Description: as §4, §2
The ability of fibroblasts to migrate in response to IGF-I in each of our models of oxidative stress-induced IGF-1 resistance was also evaluated. […]

cultured fibroblasts = test: WST-based cell viability of cultured fibroblasts; set-up: species or system rat; settings: EUK 100 μM, LA 500 μM

COc1cccc(C=NCCN=Cc2cccc(OC)c2[O-])c1[O-].[Cl-].[Mn+3] [EUK-134]
association of PI3K p85α with IRS-1 in response to IGF-1 (PI3K-p85α / IRS-1): restores this association | PI3K enzymatic activity (PI3K): partially restored | Akt phosphorylation in response to IGF-1 (Akt): partially restored | collagen mRNA synthesis (COL1A1 mRNA): returns it to approximately control levels | contractility in collagen gel assay (dermal fibroblasts): partially restores this contractility to control levels | effect on cell viability (WST-based technique) (cultured fibroblasts): minimum effect on cell viability
